Results on one compound are retold here after US20040133938A1, “Use of lipoic acid in plant culture media” (priority 2002, published 2004).

This test has as its system immature embryos of wheat cv Bobwhite. The experiment in a line: Wheat Agrobacterium transformation. The test is classed as cell-based, Triticum aestivum L. Conditions: for Efficiency (%) / Responding calli (%): selection and first regeneration media. The method, then:
This example describes the use of lipoic acid in an Agrobacterium-based wheat transformation process. Immature embryos of wheat (Triticum aestivum L) cv Bobwhite were isolated from the immature caryopsis (wheat spikelets) 13-15 days after pollination, and cultured on M7 media (M7 medium is based on CM4C medium [Table 8], but the amount of MS salts was doubled and the picloram concentration was increased from 2.4 mg/L to 4 mg/L) containing 0.02 mM glyphosate for 3-4 days in the dark at 25° C. The embryos without embryogenic callus were selected for Agrobacterium inoculation. After preculture, 100 embryos were inoculated in 5 mL 1/10 CM4C medium with 5 mL Agrobacterium (OD660=1), 10 μL Pluronic F68 was added, and the mixture was incubated for 15 minutes in the dark at room temperature. Embryos were placed on sterilized filter paper with 200 μL deionized water and cocultured in the dark for 3 days at 23° C. Embryos were then transferred to delay media for 7 days in the dark at 25° C. Delay medium consists of CM4C, 500 mg/L carbenicillin, and 0.02 mM glyphosate. Selection was then performed on CM4C with 2 mM glyphosate, 500 mg/L carbenicillin and aromatic amino acids (10^−7/amino acid) for 7 days. Regeneration was started on MMSO.2C with 0.1 mM glyphosate, 250 mg/L carbenicillin, and aromatic amino acids ([…]) for 2 weeks in the light at 25° C. Regeneration was continued in MMSO.2C with 0.02 mM glyphosate, 500 mg/L carbenicillin, aromatic amino acids (10^−7/amino acid), and 2 μM copper sulfate for 2-8 weeks (with a transfer every 2 weeks) in the light at 25° C. Finally, plantlets were transferred to sundae cups with MMSO media with 0.02 mM glyphosate, and 500 mg/L carbenicillin.

Setting [1] is: Delay-selection-first regeneration 25-25-50 (μM), 599 explants.
Setting [2] is: Delay-selection-first regeneration 25-50-50 (μM), 560 explants.
The mark [3] stands for this setting: Delay-selection-first regeneration 50-50-50 (μM), 570 explants.

Structures are written as SMILES.

For the compound `O=C(O)CCCCC1CCSS1` (stereo not shown) [lipoic acid, 1,2-dithiolane-3-pentanoic acid], the “Efficiency (%)” value (5 μM in delay, 472 explants) turned out to be 3.8%; the “Efficiency (%)” value (10 μM in delay, 486 explants) stood at 3.2%; the “Efficiency (%)” value (30 μM in delay, 486 explants) came out at 3.0%; the “Efficiency (%)” value (50 μM in delay, 482 explants) was 5.1%; the “Efficiency (%)” value (100 μM in delay, 464 explants) was determined as 2.2%. Moreover, the “Responding calli (%)” value by setting is: (5 μM in delay, 472 explants) 33.1%; (10 μM in delay, 486 explants) 38.8%; (30 μM in delay, 486 explants) 38.6%; (50 μM in delay, 482 explants) 47.9%; (100 μM in delay, 464 explants) 28.4%. For the same compound, the “% efficiency” value under setting [1] is 3.0%, the “% efficiency” value under setting [2] was 5.4% and the “% efficiency” value under setting [3] was 4.9%. The “% responding calli” value was 41.7% under setting [1], 50.5% under setting [2] and 49.6% under setting [3].
